Experimental data from patent publication US12269827B1, “Substituted pyrazino[1′,2′:1,5]pyrazolo[4,3-c][1,6]naphthyridines as CK2 inhibitors” (KING FAISAL UNIVERSITY, priority 2023, dated 2025).

Columns and labels:
PC3 (prostate) = experiment: In vitro cytotoxic activity MTT assay, PC3; assay type: cell-based; details: Homo sapiens, Prostate cell; PC3 (prostate) cells, exposed for 96 hours; read-out: Cytotoxicity activity IC50 (50% inhibition of cell proliferation)
Protocol: (§1) Compounds 1-16 were screened for their in vitro cytotoxic activity utilizing a 3-(4,5-dimethyl-thiazol-2-yl)-2,5-diphenyltetrazolium bromide (MTT) assay against selected cancer human cell lines consisting of PC3 (prostate), HCT116 (colon), A375 (melanoma), H1299 (lung), MIAPaCa-2 (pancreas), HL60 (leukemia), MCF7 (breast), MDA-MB-231 (breast) (T. Mosmann, J. Immunol. Meth., 1983, 65, 55-63). The cells were cultured at 37° C. in RMPI1640 medium supplemented with 10% fetal bovine serum, 50 IU/mL penicillin, and 50 µg/mL streptomycin in a 5% CO2 incubator. All cells were sub-cultured 3 times/week by trypsinisation. Viable cells were seeded and allowed to adhere for 12 hours before a test drug was added in 96-well plates at an initial density of 1.0×10^5 cells/mL. Tumor cell lines were separately exposed to various concentrations of the tested compounds followed by incubation at a temperature of 37° C. during 96 hours inside a medium of fresh RMPI 1640. Cells were subsequently incubated at 37° C. using MTT at 0.5 mg/mL during 4 hours. After removal of supernatant, formazan crystals were dissolved in isopropanol and the optical density was measured at 570 nm. CX-4945 was used as a positive control.

HCT116 (colon) = experiment: In vitro cytotoxic activity MTT assay, HCT116; assay type: cell-based; details: Homo sapiens, HCT-116; HCT116 (colon) cells, exposed for 96 hours; read-out: Cytotoxicity activity IC50 (50% inhibition of cell proliferation)
Protocol: as §1

A375 (melanoma) = experiment: In vitro cytotoxic activity MTT assay, A375; assay type: cell-based; details: Homo sapiens, A-375; A375 (melanoma) cells, exposed for 96 hours; read-out: Cytotoxicity activity IC50 (50% inhibition of cell proliferation)
Protocol: as §1

H1299 (lung) = experiment: In vitro cytotoxic activity MTT assay, H1299; assay type: cell-based; details: Homo sapiens, NCI-H1299; H1299 (lung) cells, exposed for 96 hours; read-out: Cytotoxicity activity IC50 (50% inhibition of cell proliferation)
Protocol: as §1

MIAPaCa-2 (pancreas) = experiment: In vitro cytotoxic activity MTT assay, MIAPaCa-2; assay type: cell-based; details: Homo sapiens, MIA PaCa-2; MIAPaCa-2 (pancreas) cells, exposed for 96 hours; read-out: Cytotoxicity activity IC50 (50% inhibition of cell proliferation)
Protocol: as §1

HL60 (leukemia) = experiment: In vitro cytotoxic activity MTT assay, HL60; assay type: cell-based; details: Homo sapiens, HL-60; HL60 (leukemia) cells, exposed for 96 hours; read-out: Cytotoxicity activity IC50 (50% inhibition of cell proliferation)
Protocol: as §1

MCF7 (breast) = experiment: In vitro cytotoxic activity MTT assay, MCF7; assay type: cell-based; details: Homo sapiens; MCF7 (breast) cells, exposed for 96 hours; read-out: Cytotoxicity activity IC50 (50% inhibition of cell proliferation)
Protocol: as §1

MDA-MB-231 (breast) = experiment: In vitro cytotoxic activity MTT assay, MDA-MB-231; assay type: cell-based; details: Homo sapiens; MDA-MB-231 (breast) cells, exposed for 96 hours; read-out: Cytotoxicity activity IC50 (50% inhibition of cell proliferation)
Protocol: as §1

[1] = target: T1, recombinant human CK2 (RRββ-holoenzyme) (Homo sapiens, UniProt P68400); experiment: CK2 Kinase Assay (33P-ATP, substrate peptide RRRDDDSDDD); assay type: biochemical; details: final ATP concentration 15 μM, 10 minutes at 30° C.; read-out: protein kinase CK2 IC50
T1 construct: purchased Millipore
T1 sequence (P68400 whole entry): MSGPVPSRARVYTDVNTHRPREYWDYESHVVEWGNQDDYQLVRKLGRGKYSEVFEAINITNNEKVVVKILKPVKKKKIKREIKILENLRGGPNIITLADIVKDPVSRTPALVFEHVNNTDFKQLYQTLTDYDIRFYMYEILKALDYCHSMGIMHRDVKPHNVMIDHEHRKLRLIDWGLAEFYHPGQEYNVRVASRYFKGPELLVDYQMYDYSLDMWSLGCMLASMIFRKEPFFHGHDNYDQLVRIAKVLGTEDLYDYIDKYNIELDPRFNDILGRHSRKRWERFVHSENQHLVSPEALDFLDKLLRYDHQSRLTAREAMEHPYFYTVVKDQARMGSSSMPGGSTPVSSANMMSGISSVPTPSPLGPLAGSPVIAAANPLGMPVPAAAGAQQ
T1 sequence (P67870 whole entry partner): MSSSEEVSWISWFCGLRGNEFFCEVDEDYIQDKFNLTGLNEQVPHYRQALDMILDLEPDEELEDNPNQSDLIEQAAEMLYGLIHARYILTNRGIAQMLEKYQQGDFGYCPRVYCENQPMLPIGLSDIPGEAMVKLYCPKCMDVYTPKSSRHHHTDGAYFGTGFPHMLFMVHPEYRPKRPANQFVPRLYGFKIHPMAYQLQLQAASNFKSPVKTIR
Protocol: CK2 Kinase Assay was conducted using the protocol as described in Pierre F. et al; J. Med. Chem. 2011, 54, 635-654. The tested compounds in aqueous solution were added at a volume of 10 μL to a reaction mixture comprising 10 μL of assay dilution buffer (ADB; 20 mM MOPS, pH 7.2, 25 mM β-glycerol phosphate, 5 mM EGTA, 1 mM sodium orthovanadate, and 1 mM dithiothreitol), 10 μL of substrate peptide (RRRDDDSDDD, dissolved in ADB at a concentration of 1 mM), 10 μL of recombinant human CK2 (RRββ-holoenzyme, 25 ng dissolved in ADB; Millipore). Reactions were initiated by the addition of 10 μL of ATP solution (90% 75 mMMgCl2, 75 μM ATP (final ATP concentration:15 μM) dissolved in ADB; 10% [γ-33P] ATP (stock 1 mCi/100 μL; 3000 Ci/mmol (Perkin-Elmer) and maintained for 10 minutes at 30° C. The reactions were quenched with 100 μL of 0.75% phosphoric acid and then transferred to and filtered through a phosphor cellulose filter plate (Millipore). After washing each well five times with 0.75% phosphoric acid, the plate was dried under vacuum for 5 min and, following the addition of 15 μL of scintillation fluid to each well, the residual radioactivity was measured using a Wallac […]. The IC50 values were derived from eight concentrations of test inhibitors.

Clc1cccc(Nc2nc3ccncc3c3nn4ccncc4c23)c1 [Compound 1, N-(3-chlorophenyl)pyrazino[1′,2′:1,5]pyrazolo[4,3-c][1,6]naphthyridin-6-amine]
IC50 (PC3 (prostate)): 1300 nM
IC50 (HCT116 (colon)): 1800 nM
IC50 (A375 (melanoma)): 3700 nM
IC50 (H1299 (lung)): 1500 nM
IC50 (MIAPaCa-2 (pancreas)): 1200 nM
IC50 (HL60 (leukemia)): 4400 nM
IC50 (MCF7 (breast)): 5700 nM
IC50 (MDA-MB-231 (breast)): 4600 nM
IC50 [1]: 38 nM
